# Data taken from patent US20240239752A1, “BICYCLIC HETEROAROMATIC INHIBITORS OF KLK5” (BioCryst Pharmaceuticals, Inc., priority 2021, published 2024).
# Molecular target: T1, recombinant human KLK5 (Homo sapiens, UniProt Q9Y337)
# T1 construct: purchased Novoprotein or R&D Systems C415 or 1108-SE
# T1 sequence (Q9Y337 23-293): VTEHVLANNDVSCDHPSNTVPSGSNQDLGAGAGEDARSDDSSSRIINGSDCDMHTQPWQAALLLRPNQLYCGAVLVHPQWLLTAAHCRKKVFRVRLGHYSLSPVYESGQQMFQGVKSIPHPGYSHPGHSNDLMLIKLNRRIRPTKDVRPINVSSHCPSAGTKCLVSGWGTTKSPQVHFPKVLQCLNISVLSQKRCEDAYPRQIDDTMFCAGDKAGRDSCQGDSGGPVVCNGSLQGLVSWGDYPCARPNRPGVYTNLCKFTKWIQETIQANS
# Assay: Kallikrein (KLK) 5 enzymatic assay (Boc-VPR-AMC fluorogenic substrate)
# Format: biochemical
# Details: recombinant human KLK5 0.1 μg/well, Boc-VPR-AMC 100 μM, pH 7.5, room temperature, 1% DMSO; tested a minimum of three times
# In short: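 Fluorogenic rate assay at pH 7.5 (0.1 M NaH2PO4, 1% DMSO, room temperature), run at least three times per compound. Compound was premixed with 0.1 μg/well recombinant human KLK5 before adding 100 μM Boc-VPR-AMC; AMC release was read at ex 380/em 460 nm, and IC50 derived from inhibition of rate vs DMSO control.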
row,Structure (SMILES),IC50 [µM]
1,"CCOC(=O)N1CC[C@H](n2nc(COc3cccc(C4CC4)c3CC(=O)O)c3cc(-c4ccc5ccnc(N)c5c4)ccc32)C1 [Compound 356e, (S)-2-(2-((5-(1-aminoisoquinolin-7-yl)-1-(1-(ethoxycarbonyl)pyrrolidin-3-yl)-1H-indazol-3-yl)methoxy)-6-cyclopropylphenyl)acetic acid]",< 1
2,"CCOC(=O)N1CC[C@H](n2nc(COc3cccc(C4CC4)c3CC(=O)O)c3cc(-c4cccc5c(N)nccc45)ccc32)C1 [Compound 357b, (S)-2-(2-((5-(1-aminoisoquinolin-5-yl)-1-(1-(ethoxycarbonyl)pyrrolidin-3-yl)-1H-indazol-3-yl)methoxy)-6-cyclopropylphenyl)acetic acid]",< 1
3,"CC(C)OC(=O)N1CC[C@H](n2nc(COc3ccccc3CC(=O)O)c3cc(-c4ccc5ccnc(N)c5c4)ccc32)C1 [Compound 358c, (S)-2-(2-((5-(1-aminoisoquinolin-7-yl)-1-(1-(isopropoxycarbonyl)pyrrolidin-3-yl)-1H-indazol-3-yl)methoxy)phenyl)acetic acid]",< 1
4,"CC(C)OC(=O)N1CC[C@H](n2nc(COc3ccccc3CC(=O)O)c3cc(-c4cccc5c(N)nccc45)ccc32)C1 [Compound 359b, (S)-2-(2-((5-(1-aminoisoquinolin-5-yl)-1-(1-(isopropoxycarbonyl)pyrrolidin-3-yl)-1H-indazol-3-yl)methoxy)phenyl)acetic acid]",< 1
5,"CC(C)COC(=O)N1CC[C@H](n2nc(COc3ccccc3CC(=O)O)c3cc(-c4ccc5ccnc(N)c5c4)ccc32)C1 [Compound 360c, (S)-2-(2-((5-(1-aminoisoquinolin-7-yl)-1-(1-(isobutoxycarbonyl)pyrrolidin-3-yl)-1H-indazol-3-yl)methoxy)phenyl)acetic acid]",< 1
6,"CC(C)COC(=O)N1CC[C@H](n2nc(COc3ccccc3CC(=O)O)c3cc(-c4cccc5c(N)nccc45)ccc32)C1 [Compound 361b, (S)-2-(2-((5-(1-aminoisoquinolin-5-yl)-1-(1-(isobutoxycarbonyl)pyrrolidin-3-yl)-1H-indazol-3-yl)methoxy)phenyl)acetic acid]",< 1
7,"CC(C)OC(=O)N1CC[C@@H](n2nc(COc3ccccc3CC(=O)O)c3cc(-c4ccc5ccnc(N)c5c4)ccc32)C1 [Compound 362c, (R)-2-(2-((5-(1-aminoisoquinolin-7-yl)-1-(1-(isopropoxycarbonyl)pyrrolidin-3-yl)-1H-indazol-3-yl)methoxy)phenyl)acetic acid]",< 1
8,"CC(C)OC(=O)N1CC[C@@H](n2nc(COc3ccccc3CC(=O)O)c3cc(-c4cccc5c(N)nccc45)ccc32)C1 [Compound 363b, (R)-2-(2-((5-(1-aminoisoquinolin-5-yl)-1-(1-(isopropoxycarbonyl)pyrrolidin-3-yl)-1H-indazol-3-yl)methoxy)phenyl)acetic acid]",< 1
9,"CC(C)COC(=O)N1CC[C@@H](n2nc(COc3ccccc3CC(=O)O)c3cc(-c4ccc5ccnc(N)c5c4)ccc32)C1 [Compound 364c, (R)-2-(2-((5-(1-aminoisoquinolin-7-yl)-1-(1-(isobutoxycarbonyl)pyrrolidin-3-yl)-1H-indazol-3-yl)methoxy)phenyl)acetic acid]",< 1
10,"CC(C)COC(=O)N1CC[C@@H](n2nc(COc3ccccc3CC(=O)O)c3cc(-c4cccc5c(N)nccc45)ccc32)C1 [Compound 365b, (R)-2-(2-((5-(1-aminoisoquinolin-5-yl)-1-(1-(isobutoxycarbonyl)pyrrolidin-3-yl)-1H-indazol-3-yl)methoxy)phenyl)acetic acid]",< 1
11,"Cc1cccc(OC2CC3(CCCC3)c3ccc(-c4cccc5c(N)nccc45)cc32)c1CC(=O)O (stereo not drawn) [Compound 366c, 2-(2-((5′-(1-aminoisoquinolin-5-yl)-2′,3′-dihydrospiro[cyclopentane-1,1′-inden]-3′-yl)oxy)-6-methylphenyl)acetic acid]",< 1
12,"Cc1cccc(OC2CC3(CCCC3)c3ccc(-c4ccc5ccnc(N)c5c4)cc32)c1CC(=O)O (stereo not drawn) [Compound 367b, 2-(2-((5′-(1-aminoisoquinolin-7-yl)-2′,3′-dihydrospiro[cyclopentane-1,1′-inden]-3′-yl)oxy)-6-methylphenyl)acetic acid]",< 1
13,"COC(=O)N1CCC2(CC1)CC(Oc1ccccc1CC(=O)O)c1cc(-c3ccc4ccnc(N)c4c3)ccc12 (stereo not drawn) [Compound 370c, 2-(2-((5-(1-aminoisoquinolin-7-yl)-1′-(methoxycarbonyl)-2,3-dihydrospiro[indene-1,4′-piperidin]-3-yl)oxy)phenyl)acetic acid]",< 1
14,"COC(=O)N1CCC2(CC1)CC(Oc1ccccc1CC(=O)O)c1cc(-c3cccc4c(N)nccc34)ccc12 (stereo not drawn) [Compound 371b, 2-(2-((5-(1-aminoisoquinolin-5-yl)-1′-(methoxycarbonyl)-2,3-dihydrospiro[indene-1,4′-piperidin]-3-yl)oxy)phenyl)acetic acid]",< 1
15,"CCOC(=O)N1CCC2(CC1)CC(Oc1ccccc1CC(=O)O)c1cc(-c3cccc4c(N)nccc34)ccc12 (stereo not drawn) [Compound 372b, 2-(2-((5-(1-aminoisoquinolin-5-yl)-1′-(ethoxycarbonyl)-2,3-dihydrospiro[indene-1,4′-piperidin]-3-yl)oxy)phenyl)acetic acid]",< 1
16,"CC(C)OC(=O)N1CCC2(CC1)CC(Oc1ccccc1CC(=O)O)c1cc(-c3ccc4ccnc(N)c4c3)ccc12 (stereo not drawn) [Compound 374c, 2-(2-((5-(1-aminoisoquinolin-7-yl)-1′-(isopropoxycarbonyl)-2,3-dihydrospiro[indene-1,4′-piperidin]-3-yl)oxy)phenyl)acetic acid]",< 1
17,"CC(C)OC(=O)N1CCC2(CC1)CC(Oc1ccccc1CC(=O)O)c1cc(-c3cccc4c(N)nccc34)ccc12 (stereo not drawn) [Compound 375b, 2-(2-((5-(1-aminoisoquinolin-5-yl)-1′-(isopropoxycarbonyl)-2,3-dihydrospiro[indene-1,4′-piperidin]-3-yl)oxy)phenyl)acetic acid]",< 1
18,"Nc1nccc2c(-c3ccc4c(c3)C(Oc3ccccc3CC(=O)O)CC43CCCCC3)cccc12 (stereo not drawn) [Compound 376f, 2-(2-((5′-(1-aminoisoquinolin-5-yl)-2′,3′-dihydrospiro[cyclohexane-1,1′-inden]-3′-yl)oxy)phenyl)acetic acid]",< 1
19,"Cc1cccc(OC2CC3(CCCCC3)c3ccc(-c4cccc5c(N)nccc45)cc32)c1CC(=O)O (stereo not drawn) [Compound 377c, 2-(2-((5′-(1-aminoisoquinolin-5-yl)-2′,3′-dihydrospiro[cyclohexane-1,1′-inden]-3′-yl)oxy)-6-methylphenyl)acetic acid]",< 1
20,"Cc1cccc(OC2CC3(CCCCC3)c3ccc(-c4ccc5ccnc(N)c5c4)cc32)c1CC(=O)O (stereo not drawn) [Compound 378b, 2-(2-((5′-(1-aminoisoquinolin-7-yl)-2′,3′-dihydrospiro[cyclohexane-1,1′-inden]-3′-yl)oxy)-6-methylphenyl)acetic acid]",< 1
21,"COC(=O)N1CCC2(CC1)CC(Oc1cccc(C)c1CC(=O)O)c1cc(-c3ccc4ccnc(N)c4c3)ccc12 (stereo not drawn) [Compound 381e, 2-(2-((5-(1-aminoisoquinolin-7-yl)-1′-(methoxycarbonyl)-2,3-dihydrospiro[indene-1,4′-piperidin]-3-yl)oxy)-6-methylphenyl)acetic acid]",< 1
22,"COC(=O)N1CCC2(CC1)CC(Oc1cccc(C)c1CC(=O)O)c1cc(-c3cccc4c(N)nccc34)ccc12 (stereo not drawn) [Compound 382b, 2-(2-((5-(1-aminoisoquinolin-5-yl)-1′-(methoxycarbonyl)-2,3-dihydrospiro[indene-1,4′-piperidin]-3-yl)oxy)-6-methylphenyl)acetic acid]",< 1
23,"Cc1cccc(OC2CC3(CCN(C(=O)OC(C)C)CC3)c3ccc(-c4ccc5ccnc(N)c5c4)cc32)c1CC(=O)O (stereo not drawn) [Compound 383c, 2-(2-((5-(1-aminoisoquinolin-7-yl)-1′-(isopropoxycarbonyl)-2,3-dihydrospiro[indene-1,4′-piperidin]-3-yl)oxy)-6-methylphenyl)acetic acid]",< 1
24,"Cc1cccc(OC2CC3(CCN(C(=O)OC(C)C)CC3)c3ccc(-c4cccc5c(N)nccc45)cc32)c1CC(=O)O (stereo not drawn) [Compound 384b, 2-(2-((5-(1-aminoisoquinolin-5-yl)-1′-(isopropoxycarbonyl)-2,3-dihydrospiro[indene-1,4′-piperidin]-3-yl)oxy)-6-methylphenyl)acetic acid]",< 1
25,"CCC(=O)N1CCC2(CC1)CC(Oc1ccccc1CC(=O)O)c1cc(-c3cccc4c(N)nccc34)ccc12 (stereo not drawn) [Compound 385c, 2-(2-((5-(1-aminoisoquinolin-5-yl)-1′-propionyl-2,3-dihydrospiro[indene-1,4′-piperidin]-3-yl)oxy)phenyl)acetic acid]",< 1
26,"CCC(=O)N1CCC2(CC1)CC(Oc1ccccc1CC(=O)O)c1cc(-c3ccc4ccnc(N)c4c3)ccc12 (stereo not drawn) [Compound 386b, 2-(2-((5-(1-aminoisoquinolin-7-yl)-1′-propionyl-2,3-dihydrospiro[indene-1,4′-piperidin]-3-yl)oxy)phenyl)acetic acid]",< 1
27,"CCC(=O)N1CCC2(CC1)CC(Oc1cccc(C)c1CC(=O)O)c1cc(-c3cccc4c(N)nccc34)ccc12 (stereo not drawn) [Compound 387c, 2-(2-((5-(1-aminoisoquinolin-5-yl)-1′-propionyl-2,3-dihydrospiro[indene-1,4′-piperidin]-3-yl)oxy)-6-methylphenyl)acetic acid]",< 1
